These results are taken from the NIST ThermoML archive (doi:10.1021/acs.jced.8b00977).

For series [1] the following is noted: Crystal; DSC.
A short description of series [2]: Molar enthalpy of transition or fusion. Particulars: Crystal; DSC.

Each structure is given as a SMILES string. ± gives the expanded uncertainty stated by the source.

Take `CC(=O)CC(c1ccccc1)c1c([O-])c2ccccc2oc1=O.[Na+]` (configuration not stated) [warfarin sodium]: the Triple point temperature in series [1] is 468.87 ± 1 K. In addition, the “Molar enthalpy of transition or fusion” value in series [2] came to 71.1 ± 3.7 kJ/mol.
